We go through 8 compounds from patent US9409952B2, “Peptide-compound cyclization method” (Chugai Seiyaku Kabushiki Kaisha, priority 2011, dated 2016).

Where two headings read alike, the source gives them in different places. Starred links: 1 amine or outer side, 2 acyl side, 3 side chain; linkers in the order of their positions; H or OH if unused. Positions of bridges follow the written chain, without caps; N, C: chain ends. Non-standard residues stand in square brackets, D forms with d. Residues, ends and D or L forms follow the SMILES beside them. *: point of attachment. Phe(4-(CH2)5CO) = O=C([C@H](Cc1ccc(CCCCCC(=O)[*:3])cc1)N[*:1])[*:2]; NMeF = CN[C@@H](Cc1ccccc1)C(=O)O; NMeGABA = CN(CCCC(=O)[*:2])[*:1]; NMeI = CC[C@H](C)[C@H](NC)C(=O)O; NMeβAla = CN(CCC(=O)[*:2])[*:1]; NMeL = CN[C@@H](CC(C)C)C(=O)O; NMeV = CN[C@H](C(=O)O)C(C)C; NMeA = CN[C@@H](C)C(=O)O; Piperidide = C1CCN(*)CC1; β3hA = C[C@H](N)CC(=O)O; Sar = CNCC(=O)O; tBu = CC(C)(C)*

Series [1] can be described thus: PAMPA (parallel artificial membrane permeability assay). The format is in vitro ADME. Conditions: for Papp at 18 hours, 50 µM: PAMPA. The method, boiled down:
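Artificial membrane was 10% (w/v) egg lecithin plus 0.5% (w/v) cholesterol in dodecane on a PVDF filter. A 10 mM DMSO stock was added at 0.5% (v/v) to donor buffer (50 mM MOPSO, pH 6.5, 5.0% glycocholic acid). After 18 h at 37 °C, LC/MS or LC/UV gave donor and acceptor levels for Pe.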
For orientation: In PAMPA a lipid-coated filter parts donor from acceptor wells.

A short description of series [2]: Metabolic stability in human hepatic microsome. The format is in vitro ADME. Conditions: microsomes.
The mark [3] stands for this setting: membrane permeation rate (Pe), 50 mM MOPSO buffer pH 6.5 with 5.0% glycocholic acid, 37° C., 18 hours, read-out: iPAMPA Pe.
[4] abbreviates: pH 7.4, human hepatic microsome, NADPH(+), read-out: CL NADPH(+).

Consider `CC[C@H](C)[C@H]1C(=O)N[C@H](C(=O)N2CCCCC2)Cc2ccc(cc2)CCCCCC(=O)N[C@@H]([C@@H](C)O)C(=O)N(C)[C@@H](Cc2ccccc2)C(=O)N[C@@H](CC(C)C)C(=O)N2CCC[C@H]2C(=O)N[C@@H](C(C)C)C(=O)N[C@@H](Cc2ccccc2)C(=O)N(C)CC(=O)N[C@@H](CC(C)C)C(=O)N[C@@H](C)C(=O)N1C` [DP-878] (T[NMeF]LPVF[Sar]LA[NMeI][Phe(4-(CH2)5CO)]-Piperidide; lactam N-11), for which the Papp at 18 hours, 50 µM in series [1] (setting [3]) was found to be 23 ×10⁻⁶ cm/s. For the same compound, in series [2] (setting [4]), the microsomal CLint at 1 uM stood at 152 µL/min/mg.

Consider `CC[C@H](C)[C@H]1C(=O)N[C@@H](C)C(=O)N(C)[C@@H](CC(C)C)C(=O)N[C@@H]([C@@H](C)O)C(=O)N[C@@H](Cc2ccccc2)C(=O)N(C)[C@@H](Cc2ccccc2)C(=O)N(C)[C@@H](CC(C)C)C(=O)N[C@@H](COC(C)(C)C)C(=O)N(C)[C@@H](CC(C)C)C(=O)N(C)[C@@H](C)C(=O)N[C@@H](C)CC(=O)N[C@H](C(C)C)C(=O)N1C` [DP-760] (cyclo(A[NMeL]TF[NMeF][NMeL]S(tBu)[NMeL][NMeA][β3hA][dV][NMeI])), for which the Papp at 18 hours, 50 µM in series [1] (pH 6.5) worked out at 28 ×10⁻⁶ cm/s. Moreover, the microsomal CLint at 1 uM in series [2] (human, pH 7.4, CL NADPH(+)) is 194 µL/min/mg.

Consider `CC(C)C[C@H]1C(=O)N(C)[C@@H](CC(C)C)C(=O)N[C@H](C(=O)N2CCCCC2)CC(=O)N(C)CCCC(=O)N(C)[C@@H](Cc2ccccc2)C(=O)N[C@@H]([C@@H](C)O)C(=O)N(C)[C@@H](C)C(=O)N[C@@H](COC(C)(C)C)C(=O)N1C` [DP-685] ([NMeGABA][NMeF]T[NMeA]S(tBu)[NMeL][NMeL]D-Piperidide; lactam N-8), for which the Papp at 18 hours, 50 µM in series [1] (setting [3]) was 28 ×10⁻⁶ cm/s. Moreover, in series [2] (setting [4]), the microsomal CLint at 1 uM worked out at 90 µL/min/mg.

Regarding `CC[C@H](C)[C@H]1C(=O)N[C@@H](C)C(=O)N(C)[C@@H](CC(C)C)C(=O)N[C@@H](COC(C)(C)C)C(=O)N(C)[C@@H](CC(C)C)C(=O)N[C@H](C(=O)N2CCCCC2)Cc2ccc(cc2)CCCCCC(=O)N[C@@H](Cc2ccccc2)C(=O)N(C)[C@@H](Cc2ccccc2)C(=O)N(C)[C@@H](CC(C)C)C(=O)N[C@@H]([C@@H](C)O)C(=O)N(C)[C@@H](C)C(=O)N1C` [DP-873] (F[NMeF][NMeL]T[NMeA][NMeI]A[NMeL]S(tBu)[NMeL][Phe(4-(CH2)5CO)]-Piperidide; lactam N-11), the “iPAMPA Pe” value in series [1] (membrane permeation rate (Pe), 50 mM MOPSO buffer pH 6.5 with 5.0% glycocholic acid, 37° C., 18 hours) stood at 1.0E−07. Also, in series [2] (setting [4]), the microsomal CLint at 1 uM stood at 39 µL/min/mg.

Turning to `CC(C)C[C@H]1C(=O)N[C@@H](COC(C)(C)C)C(=O)N[C@@H](C)CC(=O)N[C@H](C)C(=O)N(C)[C@@H](C)C(=O)N(C)[C@@H](Cc2ccccc2)C(=O)N(C)[C@@H](CC(C)C)C(=O)N[C@@H]([C@@H](C)O)C(=O)N(C)[C@@H](C)C(=O)N1C` [DP-787] (cyclo([NMeA][NMeF][NMeL]T[NMeA][NMeL]S(tBu)[β3hA][dA])), the Papp at 18 hours, 50 µM in series [1] (setting [3]) was 29 ×10⁻⁶ cm/s. Further, in series [2] (setting [4]), the microsomal CLint at 1 uM stood at 33 µL/min/mg.

Compound `CC[C@H](C)[C@H]1C(=O)N[C@H](C(=O)N2CCCCC2)CC(=O)N(C)CCC(=O)N(C)[C@@H](Cc2ccccc2)C(=O)N(C)[C@@H](CC(C)C)C(=O)N[C@@H]([C@@H](C)O)C(=O)N(C)CC(=O)N(C)[C@@H](CC(C)C)C(=O)N[C@@H](COC(C)(C)C)C(=O)N1C` [DP-155] ([NMeβAla][NMeF][NMeL]T[Sar][NMeL]S(tBu)[NMeI]D-Piperidide; lactam N-9) yielded a Papp at 18 hours, 50 µM in series [1] (pH 6.5) of 55 ×10⁻⁶ cm/s. This compound yielded a microsomal CLint at 1 uM in series [2] (human, pH 7.4, CL NADPH(+)) of 101 µL/min/mg.

In the case of `CC(C)C[C@H]1C(=O)N[C@@H](C)C(=O)N(C)[C@@H](Cc2ccccc2)C(=O)N(C)[C@@H](C(C)C)C(=O)N[C@@H](C)C(=O)N(C)[C@@H](C)C(=O)N[C@H](C(=O)N(C)[C@@H](Cc2ccccc2)C(=O)N[C@@H](C)C(=O)N2CCCCC2)CC(=O)N(C)[C@@H](C)C(=O)N(C)[C@@H](Cc2ccccc2)C(=O)N[C@@H]([C@@H](C)O)C(=O)N(C)[C@@H](C)C(=O)N1C` [DP-367] ([NMeA][NMeF]T[NMeA][NMeL]A[NMeF][NMeV]A[NMeA]D[NMeF]A-Piperidide; lactam N-11), in series [1] (setting [3]), the Papp at 18 hours, 50 µM came to 12 ×10⁻⁶ cm/s. In addition, the microsomal CLint at 1 uM in series [2] (setting [4]) was 17 µL/min/mg.

On to `CC[C@H](C)[C@@H]1NC(=O)[C@H](Cc2ccccc2)NC(=O)[C@H]([C@@H](C)O)NC(=O)CCN(C)C(=O)C[C@@H](C(=O)N2CCCCC2)NC(=O)[C@H](Cc2ccccc2)NC(=O)[C@H](Cc2ccccc2)NC(=O)CNC(=O)[C@H](CC(C)C)N(C)C(=O)[C@H](CC(C)C)NC1=O` [DP-423] ([NMeβAla]TFIL[NMeL]GFFD-Piperidide; lactam N-10), for which the Papp at 18 hours, 50 µM in series [1] (setting [3]) came out at 15 ×10⁻⁶ cm/s. Also, in series [2] (setting [4]), the microsomal CLint at 1 uM was 110 µL/min/mg.
